Results taken from patent publication US20240294467A1, “USP9X Inhibitors” (ProDeg, LLC, priority 2021, published 2024).
Like-named read-outs stand apart in the source and are kept apart here. Blank lines part the entries; values can stand above or below the molecule they belong to. Residues, ends and D or L forms follow the SMILES beside them. *: point of attachment. Cbz = O=C(OCc1ccccc1)*

Experiments:
[1] = tested on: U937 cells; experiment: WST-1 cell viability assay; type: cell-based; conditions: Homo sapiens, U-937, U937 cells
Procedure: (§1) Compound Compound 9A was tested for the ability to inhibit the proliferation of Mia-Paca-2 pancreatic cancer cells. Mia-Paca-2 and MDA-MB-231 cells were seeded into the wells of a 96 well tissue culture plate in complete medium (10% fetal calf serum) and incubated overnight at 37° C./5% CO2). The medium was exchanged for fresh medium containing varying concentrations of Compound 9A and the plate was incubated for 72 hours at 37° C./5% CO2. The viability of cells at the end of this incubation was assessed with the WST-1 reagent. To 10 ml of warm (37° C.) complete medium, 1 ml WST-1 reagent was added. The medium from the wells of the plate with the Mia-Paca-2 cells was removed and replaced with 100 μL of the WST-1 reagent in complete medium. The plate was incubated at 37 37° C./5% CO2. At timed intervals the absorbance at 450 nm was determined for each well in a UVNis plate reader. For each well the slope of the plot of the absorbance 450 nm vs time was determined. The readings were normalized to that of the wells for the untreated control and a dose-response curve was plotted. A fit to the data was made from a four parameter, variable slope program (GraphPad Prism) and the IC50 was determined.
The effect of Compound 7A on U937 cells was assessed using the same experiment described in the Inhibitory Activities against the Proliferation of Mia-Paca-2 and Other Cancer Cells section above. In response to treatment with Compound 7A, proliferation of U937 leukemia cells was inhibited and induced apoptosis was obsessed by trypan blue staining.
U937 cells were treated with the Bcl-2/Bcl-xL inhibitor ABT737 72 hours at varying concentrations and underwent western blot analysis.

[2] = tested on: MDA-MB-231 cells; experiment: WST-1 cell viability assay; type: cell-based; conditions: Homo sapiens
Procedure: as §1
The TNBC cell line MDA-MB-231 express high levels of Mcl-1 and USP9X in addition to Bcl-2 and Bcl-xL. MDA-MB-231 cells were treated with ABT737 for 72 hours at varying concentrations and underwent western blot analysis.

[3] = tested on: Mia-Paca-2 pancreatic cancer cells; experiment: WST-1 cell viability assay; type: cell-based; conditions: for cell viability: Mia-Paca-2 pancreatic cells
Procedure: as §1
(§2) The same procedures were also applied to the compounds Compound 7A, Compound 6A, and Compound 8A to test their inhibitory activities against RKO colon, Mia-Paca-2 pancreatic and BT-549 cancer cells.

[4] = tested on: RKO colon cells; experiment: WST-1 cell viability assay; type: cell-based
Procedure: as §1, §2

[5] = tested on: BT-549 cancer cells; experiment: WST-1 cell viability assay; type: cell-based, human; conditions: BT-549 cells
Procedure: as §1, §2

[6] = target: T1, USP9X (Homo sapiens (Human), UniProt Q93008); experiment: USP9X enzyme activity assay, ubiquitin-rhodamine110 substrate
Target sequence in this assay (Q93008 whole entry): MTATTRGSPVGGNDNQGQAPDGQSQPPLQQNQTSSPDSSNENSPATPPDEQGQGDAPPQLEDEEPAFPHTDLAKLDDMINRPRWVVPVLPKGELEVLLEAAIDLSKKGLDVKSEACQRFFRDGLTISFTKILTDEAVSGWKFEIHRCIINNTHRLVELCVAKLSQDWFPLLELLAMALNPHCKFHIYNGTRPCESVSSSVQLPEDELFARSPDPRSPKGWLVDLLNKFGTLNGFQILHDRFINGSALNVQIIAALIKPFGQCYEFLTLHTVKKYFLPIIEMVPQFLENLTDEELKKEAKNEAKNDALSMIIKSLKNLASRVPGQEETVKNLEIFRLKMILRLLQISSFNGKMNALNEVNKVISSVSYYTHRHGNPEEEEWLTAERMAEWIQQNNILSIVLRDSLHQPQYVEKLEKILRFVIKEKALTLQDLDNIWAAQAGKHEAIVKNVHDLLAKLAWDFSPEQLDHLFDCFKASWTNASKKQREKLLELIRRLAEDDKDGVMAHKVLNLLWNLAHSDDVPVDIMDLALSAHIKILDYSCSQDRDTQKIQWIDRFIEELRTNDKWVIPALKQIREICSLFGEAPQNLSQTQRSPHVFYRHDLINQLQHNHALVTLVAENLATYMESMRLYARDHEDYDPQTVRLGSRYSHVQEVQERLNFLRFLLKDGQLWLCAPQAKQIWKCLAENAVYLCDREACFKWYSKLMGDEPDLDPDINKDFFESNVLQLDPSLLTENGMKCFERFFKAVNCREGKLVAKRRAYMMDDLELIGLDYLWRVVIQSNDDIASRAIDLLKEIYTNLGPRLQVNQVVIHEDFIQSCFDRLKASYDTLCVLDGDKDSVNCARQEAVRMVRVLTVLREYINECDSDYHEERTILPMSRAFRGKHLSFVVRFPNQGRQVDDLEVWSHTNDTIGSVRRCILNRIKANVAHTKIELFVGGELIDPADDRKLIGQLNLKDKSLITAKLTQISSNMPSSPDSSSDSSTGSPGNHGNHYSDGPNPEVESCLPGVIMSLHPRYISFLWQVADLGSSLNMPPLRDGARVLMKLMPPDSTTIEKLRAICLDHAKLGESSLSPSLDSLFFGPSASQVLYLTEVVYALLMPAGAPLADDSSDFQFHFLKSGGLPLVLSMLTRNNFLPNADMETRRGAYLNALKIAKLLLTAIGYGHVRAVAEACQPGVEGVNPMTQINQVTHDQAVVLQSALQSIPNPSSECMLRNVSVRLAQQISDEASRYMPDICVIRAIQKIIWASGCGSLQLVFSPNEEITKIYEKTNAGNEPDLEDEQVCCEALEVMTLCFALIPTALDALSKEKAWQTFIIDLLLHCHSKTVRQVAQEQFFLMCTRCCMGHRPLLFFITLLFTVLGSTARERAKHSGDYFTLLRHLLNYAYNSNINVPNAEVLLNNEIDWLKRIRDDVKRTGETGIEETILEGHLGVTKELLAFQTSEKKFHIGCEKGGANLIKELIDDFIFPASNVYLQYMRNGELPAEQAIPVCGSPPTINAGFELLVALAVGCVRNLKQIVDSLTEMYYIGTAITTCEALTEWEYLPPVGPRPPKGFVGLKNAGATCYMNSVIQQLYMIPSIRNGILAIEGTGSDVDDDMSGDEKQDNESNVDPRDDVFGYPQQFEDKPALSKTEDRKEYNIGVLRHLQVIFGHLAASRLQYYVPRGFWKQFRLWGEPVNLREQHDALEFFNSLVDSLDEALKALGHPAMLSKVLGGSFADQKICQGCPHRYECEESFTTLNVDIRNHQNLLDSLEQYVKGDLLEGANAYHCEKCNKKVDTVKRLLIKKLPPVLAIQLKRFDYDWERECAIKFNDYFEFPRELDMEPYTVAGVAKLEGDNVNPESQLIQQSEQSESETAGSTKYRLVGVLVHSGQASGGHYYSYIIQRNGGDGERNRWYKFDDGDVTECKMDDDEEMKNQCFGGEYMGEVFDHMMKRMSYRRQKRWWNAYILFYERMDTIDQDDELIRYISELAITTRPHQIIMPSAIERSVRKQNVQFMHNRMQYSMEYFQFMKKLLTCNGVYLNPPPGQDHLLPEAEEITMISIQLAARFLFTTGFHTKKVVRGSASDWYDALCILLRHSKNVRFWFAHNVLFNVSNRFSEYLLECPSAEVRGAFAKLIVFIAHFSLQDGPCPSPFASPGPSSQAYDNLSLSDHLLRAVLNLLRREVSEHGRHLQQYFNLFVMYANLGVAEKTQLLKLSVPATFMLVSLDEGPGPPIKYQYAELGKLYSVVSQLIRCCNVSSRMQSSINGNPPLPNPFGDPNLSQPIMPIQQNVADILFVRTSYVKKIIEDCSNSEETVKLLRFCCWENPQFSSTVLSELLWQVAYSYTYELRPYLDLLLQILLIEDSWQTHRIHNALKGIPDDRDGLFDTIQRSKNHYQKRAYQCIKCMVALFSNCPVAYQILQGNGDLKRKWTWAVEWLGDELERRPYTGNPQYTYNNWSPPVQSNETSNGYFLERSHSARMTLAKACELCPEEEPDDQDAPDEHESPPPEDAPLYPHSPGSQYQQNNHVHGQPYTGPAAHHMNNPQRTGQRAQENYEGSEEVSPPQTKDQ

[7] = target: T1, USP9X; experiment: Steady-state enzyme inhibition kinetics of USP9X; type: biochemical
From the text: The data were fit to a general model for enzyme inhibition (FIG. 1E) so the values of the parameters determined from the assays specified the mode of inhibition. For example, in the case of α=1 and β=0, it corresponded to purely non-competitive inhibition. For α=infinity and p=1, it corresponded to purely competitive inhibition. The values of all the parameters, KS, KI, kcat, α, and β could be determined from the steady state measurements. The enzyme reactions were set up as described in the Inhibiting the catalytic activity of USP9X section. The concentration of the substrate ubqiutin-rhodamine110 was varied. The initial rates of the reactions were determined at several concentrations of the inhibitor Compound 2A. In order to determine the values of the parameters KS and kcat, the reaction rates in the absence of the inhibitor Compound 2A, the initial reaction rate data were fit to the standard Michaelis-Menten equation v=Vmax [S]/(Km+[S]). The values of α and β could then be determined by fitting the initial rate data of the enzyme reaction at various concentrations of Compound 2A to a modified version of the Michaelis-Menten equation, designating both Vmax and KS apparent to distinguish the apparent values of the parameters determined from these plots to the true values for these parameters determined from the steady state kinetics in the absence of Compound 2A. The values of α and β could be determined from the variation of the slopes and intercepts of the series of double reciprocal plots of 1/v versus 1/[S] for each concentration of Compound 2A. […] The two values determined for KI were from the two different plots.
The two values for KI were determined by two different methods for determining this parameter from the kinetic data: 1 represented a value determined from the slope of the 1/A intercept vs 1/[I] plot; 2 represented a value determined from the y intercept of the 1/A slope vs 1/[I] plot. […] Only the values of the parameters varied for the compounds.
Target sequence in this assay (Q93008 whole entry): as above

[8] = target: USP24 (Homo sapiens (Human), UniProt Q9UPU5); conditions: cited from earlier work
[9] = target: USP5 (Homo sapiens (Human), UniProt P45974); conditions: cited from earlier work
[10] = target: T1, USP9X; conditions: cited from earlier work
Target sequence in this assay (Q93008 whole entry, species assumed): as the sequence (Q93008 whole entry) above

[11] = tested on: Mcl-1; experiment: Western blot of Mcl-1 in U937 cells; type: cell-based; conditions: agent alone
Procedure: After 24 hours treatment with Compound 7A, U937 cells were collected by centrifugation and whole cell lysates were prepared. These lysates were analyzed by Western blot to determine the level of Mcl-1. Western blot analysis was carried out as previously described (Wang et al., 2014 Journal of the American Society of Nephrology DOI: 10.1681/asn.2013060665). The band intensity for Mcl-1 in these samples were normalized to that of tubulin to correct for any inconsistencies in total protein in loading and processing the whole cell lysates.
To investigate the mechanism of action, Western blot analysis was carried out to test the induced degradation of USP9X substrate Mcl-1 by the compounds under the effects of protein synthesis inhibitor cycloheximide and/or proteasome inhibitor MG132. U937 cells were treated with 10 μM cycloheximide for one hour, with 10 μM MG132 for one hour, with the combination of 10 μM cycloheximide and 10 μM MG132 for one hour, and with vehicle (DMSO) for one hour, respectively, prior to the treatment with Compound 5A for 24 hrs. The U937 cells were harvested after treatment and whole cell lysates were prepared. These lysates were analyzed by Western blot to determine the abundance of Mcl-1 as well as that of tubulin as a normalization control. […] The band intensity of the Mcl-1 in cells treated with cycloheximide alone (Lane 2) was reduced relative to that for tubulin. […] Global blockade of protein synthesis by cycloheximide led to a significant decrease in the expression levels, especially for short lived Mcl-1. The retention of a reduced portion of Mcl-1 indicated the immunity of this portion to proteasomal degradation. […] In contrast, the band intensity of Mcl-1 relative to that of tubulin increased upon treatment of U937 cells with the proteasome inhibitor MG132 (Lane 4). […] Together, the results of this Example are consistent with the compounds acting on the proposed mechanism that intracellular inhibition of the deubiquitylase activity of USP9X blocks its ability to rescue USP9X substrates such as Mcl-1 from proteasomal degradation. In other aspects, by varying the concentration ratios of the compound and proteasome inhibitor for treating cells, it was possible to achieve controlled degradation of a USP9X substrate so the substrate could decline to a desirable level rather than degrade entirely.

[12] = 72 hours, single agent, read-out: IC50, cell viability
[13] = read-out: USP9X IC50/UM, Table 8

USP5, sequence (P45974 whole entry, species assumed): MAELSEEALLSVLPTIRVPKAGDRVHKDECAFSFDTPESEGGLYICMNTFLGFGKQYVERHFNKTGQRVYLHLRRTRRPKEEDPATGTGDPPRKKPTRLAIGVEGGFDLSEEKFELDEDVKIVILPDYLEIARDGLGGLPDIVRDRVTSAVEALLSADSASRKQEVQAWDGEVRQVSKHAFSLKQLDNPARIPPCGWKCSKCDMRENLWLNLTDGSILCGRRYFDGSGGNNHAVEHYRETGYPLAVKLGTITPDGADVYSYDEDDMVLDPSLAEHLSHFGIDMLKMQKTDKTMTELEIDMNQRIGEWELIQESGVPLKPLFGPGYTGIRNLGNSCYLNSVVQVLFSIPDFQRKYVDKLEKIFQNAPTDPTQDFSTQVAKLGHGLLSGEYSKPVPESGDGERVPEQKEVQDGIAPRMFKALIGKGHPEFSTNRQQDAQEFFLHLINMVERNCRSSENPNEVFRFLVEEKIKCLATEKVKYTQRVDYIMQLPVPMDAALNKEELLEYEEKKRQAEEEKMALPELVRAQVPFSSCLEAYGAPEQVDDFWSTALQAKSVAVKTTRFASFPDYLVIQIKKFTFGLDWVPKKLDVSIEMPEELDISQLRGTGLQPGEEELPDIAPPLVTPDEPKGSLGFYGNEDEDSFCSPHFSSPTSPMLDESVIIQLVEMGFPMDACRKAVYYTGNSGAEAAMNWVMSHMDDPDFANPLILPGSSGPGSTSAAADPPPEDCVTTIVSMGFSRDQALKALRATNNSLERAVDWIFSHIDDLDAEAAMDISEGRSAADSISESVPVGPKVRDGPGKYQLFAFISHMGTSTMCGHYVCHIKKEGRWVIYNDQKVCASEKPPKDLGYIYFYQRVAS

IC50 ([1]; 72-hour treatment, single agent, read-out: IC50, cell viability): 3.4 µM | IC50 ([1]; with 0.5 μM Compound 7A, read-out: IC50 of ABT737 with co-treatment): 0.06 µM | IC50 [2, 12]: 8.7 µM | IC50 ([2]; co-treated with 10 μM Compound 5A, read-out: IC50 of ABT737 with co-treatment): 1.8 µM
Molecule: CN(C)CC[C@H](CSc1ccccc1)Nc1ccc(S(=O)(=O)NC(=O)c2ccc(N3CCN(Cc4ccccc4-c4ccc(Cl)cc4)CC3)cc2)cc1[N+](=O)[O-] [ABT737, reference compound]

Molecule: CN1CCCCOc2ccc(cc2)C(=O)NCc2cccc(c2)C(=O)N[C@@H](CC(C)(C)C)C(=O)Nc2ccc(cc2)CCC1=O [Compound 6A]
cell viability [3]: significant decreases | cell viability [4]: significant decreases | cell viability [5]: significant decreases

Molecule: CN1CCCCOc2ccc(cc2)C(=O)NCc2ccc(F)c(c2)C(=O)N[C@@H](CC(C)(C)C)C(=O)Nc2ccc(cc2)CCC1=O [Compound 8A]
cell viability [3]: significant decreases | cell viability [4]: significant decreases | cell viability [5]: significant decreases

IC50 ([3]; Homo sapiens, Mia-Paca-2 cells, 72 hours, read-out: IC50, inhibition of proliferation): 0.01 µM | IC50 [2, 12]: 2 µM
Molecule: CN1CCOc2ccc(c(F)c2)C(=O)NCc2cccc(c2)C(=O)N[C@@H](CC(C)(C)C)C(=O)Nc2ccc(cc2)CCN(C)C(=O)CC(C)(C)CC1=O [Compound 9A]

IC50 ([6]; read-out: IC50 for the inhibition of USP9X activity, ubiquitin-rhodamine110 substrate): 48 nM | IC50 ([6]; read-out: USP9X IC50 nM, Table 2): 48 nM | KS [7]: 0.91 µM | VMAX RFU/min [7]: 408 RFU/min | α [7]: 2 | β [7]: 0.88 | Ki ([7]; from the slope of the 1/Δ intercept vs 1/[I] plot, read-out: KI, nM (1)): 7 nM | Ki ([7]; from the y intercept of the 1/Δ slope vs 1/[I] plot, read-out: KI, nM (2)): 69 nM
Molecule: CN1CCOc2ccc(c(F)c2)C(=O)NCc2ccc(F)c(c2)C(=O)N[C@@H](CC(C)(C)C)C(=O)Nc2ccc(cc2)CCN(C)C(=O)CC(C)(C)CC1=O [Compound 11A]

Molecule: CNC(=O)c1cccc(CNC(=O)c2ccc(OCCNC(=O)CC(C)(C)CC(=O)NCCc3ccc(NC(=O)[C@H](CC(C)(C)C)NC(C)=O)cc3)cc2)c1 [Compound 71]
USP9X IC50/UM ([6]; Table 8): >50 UM

IC50 [6, 13]: 29000 nM
Molecule: CC(C)(C)C[C@H](NC(=O)c1cccc(CN)c1)C(=O)Nc1ccc(CCNC(=O)CC(C)(C)CC(=O)NCCOc2ccc(C(=O)O)cc2)cc1 [Compound 72]

Molecule: CC(=O)NCc1cccc(C(=O)N[C@@H](CC(C)(C)C)C(=O)Nc2ccc(CCNC(=O)CC(C)(C)CC(=O)NCCOc3ccc(C(=O)O)cc3)cc2)c1 [Compound 73]
IC50 [6, 13]: 15000 nM

Molecule: CNC(=O)c1ccc(OCCNC(=O)CC(C)(C)CC(=O)NCCc2ccc(NC(=O)[C@H](CC(C)(C)C)NC(=O)c3cccc(CNC(C)=O)c3)cc2)cc1 [Compound 74]
IC50 [6, 13]: 12000 nM

Molecule: CCCC(NC(=O)/C(C#N)=C/c1nc(Cl)ccc1Cl)c1ccc(OCCN2CCOCC2)cc1 (stereo not drawn) [EOAI3402143]
inhibits USP24 [8]: inhibits | inhibits USP5 [9]: inhibits | inhibits USP9X [10]: inhibits

Molecule: CC(C)C[C@@H](C=O)NC(=O)[C@H](CC(C)C)NC(=O)[C@H](CC(C)C)NC(=O)OCc1ccccc1 [MG132, reference compound] (Cbz-Leu-Leu-Leu-aldehyde)
band intensity of Mcl-1 relative to tubulin [11]: increased

Molecule: C[C@@H]1C[C@@H]([C@H](O)CC2CC(=O)NC(=O)C2)C(=O)[C@@H](C)C1 [cycloheximide, reference compound]
band intensity of Mcl-1 relative to tubulin [11]: reduced

effect on USP9X activity ([6]; ubiquitin-rhodamine110 substrate): completely abolished
Molecule: ubiquitin aldehyde [reference compound]
